Measured values taken from US20250188078A1, “SMALL MOLECULE INHIBITORS OF THE CRL4 UBIQUITIN LIGASE” (Cornell University, priority 2022, published 2025).
Like-named read-outs stand apart in the source and are kept apart here.

Key:
[1] = system: CUL4A^low T47D breast cancer cells; experiment: Cell killing in CUL4-low T47D cells (CellTiter Glo); format: cell-based; settings: Homo sapiens, 192 h, 8 days treatment
DDB1-BPB = DDB1-BPB (Homo sapiens (Human), UniProt Q16531); experiment: Microscale Thermophoresis (MST) binding to DDB1-BPB; settings: labeled DDB1-BPB, 25° C.
Experimental: Kd represents dissociation constant, which measures the affinity of small molecule binding to the scaffold DDB1-BPB by Microscale Thermophoresis (MST) (see Table 1, column 9). MST experiments were performed on a Monolith NT 115 system (Nano Temper Technologies, Munich, Germany) using 100% LED and 60% IR-laser power (https://physiology.case.edu/media/eq manuals/eq_manual_nano-temper_mst_starting_guide.pdf, hereby incorporated by reference in its entirety for all purposes). The labeling of DDB1-BPB ([…]) was performed in labeling buffer with NHS-Red reactive dye (30 μM) (Nanotemper), which reacts efficiently with the primary amines of the proteins to form a stable dye protein conjugates. The labeling reaction was carried out at RT. A 16-point serial dilution (1:1) was prepared for compound at the final concentration ranged from 200 µM to 3 nM in PBS containing 0.05% tween. The samples were filled into Premium capillaries and measurements were conducted at 25° C. An equation implemented by the software MO-S002 MO Affinity Analysis, provided by the manufacturer, was used for fitting normalized fluorescence values at different concentrations of ligands.

[2] = target: CUL4A-DDB1-BPB interaction (Homo sapiens (Human), UniProt Q16531); experiment: AlphaLISA in vitro binding assay, CUL4A and DDB1-BPB binding; settings: inhibition of CUL4A and DDB1-BPB binding
Procedure, shortened: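 Compound disruption of CUL4A binding to DDB1-BPB measured by AlphaLISA/AlphaScreen bead proximity in 384-well format. IC50 from nonlinear log(inhibitor)-vs-response curve fit.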

[3] = system: CUL4A^high MDA-MB-468 breast cancer cells; experiment: Cell killing in CUL4-high MDA-MB-468 cells (CellTiter Glo); format: cell-based; settings: Homo sapiens, 8 days treatment
Procedure, shortened: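 Cells seeded, treated after 24 h with DMSO or compound (0 to 20 μM). Medium and compound replaced every 48 h over 8 days. Viability measured by CellTiter-Glo luminescence; EC50 (50% killing) from log(inhibitor) vs response nonlinear fit.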

MCF7 breast cancer cells = experiment: Cell killing in MCF7 cells (CellTiter Glo); format: cell-based; settings: Homo sapiens, MCF7, 192 h; Table 3, 0 to 20 μM compound, 8 days treatment
Experimental: CUL4A^high MDA-MB-468, CUL4^low (T47D), and MCF7 breast cancer cells were seeded in 96 well plates separately. Cells were treated with DMSO, or from 0 to 20 μM compound respectively. Replace with fresh medium and compounds every 48 hours. After 8 days treatment, cell viability was examined by CellTiter Glo kit (Promega #7570). First, transfer the appropriate volume (10 ml for Cat. #G7570) of CellTiter-Glo® Buffer into the amber bottle containing CellTiter-Glo® Substrate to reconstitute the lyophilized enzyme/substrate mixture. This forms the CellTiter-Glo® Reagent. Second, add CellTiter-Glo® Reagent in an equal volume (100 μl per well for 96-well plates) to all wells. Mix contents for 2 minutes on an orbital shaker to induce cell lysis. Incubate at room temperature for 15 minutes to stabilize luminescent signal. Then record luminescence. EC50 concentration was calculated by Prism 8 XY analysis nonlinear regression (curve fit-Log(inhibitor) vs response).

Chain of CUL4A-DDB1-BPB interaction (Q16531 403-706): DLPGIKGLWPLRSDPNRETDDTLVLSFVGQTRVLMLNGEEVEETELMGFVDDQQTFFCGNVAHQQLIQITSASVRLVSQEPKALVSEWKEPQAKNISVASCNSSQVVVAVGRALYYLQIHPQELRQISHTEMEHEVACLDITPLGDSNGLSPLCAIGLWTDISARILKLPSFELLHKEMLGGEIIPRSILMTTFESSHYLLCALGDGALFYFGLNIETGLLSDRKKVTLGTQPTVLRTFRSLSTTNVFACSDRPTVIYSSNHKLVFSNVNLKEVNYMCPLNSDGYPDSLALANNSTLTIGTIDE
Chain of DDB1-BPB (Q16531 403-706): as above

**Q.** Which EC50 ([1]; T47D cells, read-out: EC50 CUL4-Low Cells (cell killing)) does the source give for CN(c1ccc(-c2nc(C(=O)O)cc3c2[nH]c2cc(F)ccc23)cc1)S(=O)(=O)c1ccccc1 [PA1-3, 7-fluoro-1-(4-(N-methylphenylsulfonamido)phenyl)-9H-pyrido[3,4-b]indole-3-carboxylic acid] here?
**A.** 3420 nM

**Q.** What about the EC50 ([1]; T47D, Table 3, 0 to 20 μM compound, read-out: EC50 OF cell killing, T47D) of the same compound?
**A.** 3420 nM

**Q.** And the Kd (DDB1-BPB)?
**A.** 720 nM

**Q.** What about the IC50 [2] of the same compound?
**A.** 530 nM

**Q.** What about the EC50 ([3]; 192 h, MDA-MB-468 cells, read-out: EC50 CUL4-High Cells (cell killing)) of the same compound?
**A.** 480 nM

**Q.** What about the EC50 ([3]; MDA-MB-468, 192 h, Table 3, 0 to 20 μM compound, read-out: EC50 OF cell killing, MDA-MB-468) of the same compound?
**A.** 490 nM

**Q.** What about the EC50 (MCF7 breast cancer cells) of the same compound?
**A.** 3360 nM
